Numbered stars: 1 amine (or outer) side, 2 acyl side, 3 side chain; on linkers, the order of the positions; unused ones are H or OH. Bridge positions count the residues as written; N and C are the ends. Square brackets hold non-standard residues; d marks the D form. Peptide text beside a SMILES is read from it. * marks the point of attachment. Trp(βS-Me,7-OMe) = COc1cccc2c([C@H](C)[C@H](N)C(=O)O)c[nH]c12; X24 = O=C(O)c1ccc([C@@H](O)[C@H](N[*:1])C(=O)[*:2])cc1; Morpholine(3S-CO,6,6-Me2) = CC1(C)CN[C@H](C(=O)O)CO1; Trp(7-CN) = N#Cc1cccc2c(C[C@H](N)C(=O)O)c[nH]c12; Trp(7-Cl) = N[C@@H](Cc1c[nH]c2c(Cl)cccc12)C(=O)O; Phe(3-CONH2) = NC(=O)c1cccc(C[C@H](N)C(=O)O)c1; Phe(4-CONH2) = NC(=O)c1ccc(C[C@H](N)C(=O)O)cc1; Phe(4-COOH) = N[C@@H](Cc1ccc(C(=O)O)cc1)C(=O)O; 4Pal(3S-Me) = C[C@@H](c1ccncc1)[C@H](N)C(=O)O; Trp(7-aza) = N[C@@H](Cc1c[nH]c2ncccc12)C(=O)O; Pip(5R-OH) = O=C(O)[C@@H]1CC[C@@H](O)CN1; X1 = O=C([C@@H]1CC[C@H](N[*:1])C1)[*:2]; Isoxazole(3-carbonyl) = O=C(c1ccon1)*; Pip(4-aza) = O=C(O)[C@@H]1CNCCN1; hPhe = N[C@@H](CCc1ccccc1)C(=O)O; 4Pal = N[C@@H](Cc1ccncc1)C(=O)O; NMeE = CN[C@@H](CCC(=O)O)C(=O)O; dHyp = O=C(O)[C@H]1C[C@H](O)CN1; aThr = C[C@H](O)[C@H](N)C(=O)O; Ahp(2) = CCCCC[C@H](N)C(=O)O; αMeS = C[C@](N)(CO)C(=O)O; Carboxymethyl = O=C(O)C*; Nle = CCCC[C@H](N)C(=O)O; Dab = NCC[C@H](N)C(=O)O; Sar = CNCC(=O)O
How the values were obtained:
[1] = molecular target: T1, human TNFR1 extracellular domain (ECD) protein (Homo sapiens, UniProt P19438); test: SPR binding affinity to captured human TNFR1 ECD
T1 construct: HRV 3C protease cleavage site (C); 6His (C, cleaved yes); made in house; host or cells: Sf21 insect cells (baculovirus), secreted
T1 sequence (P19438 30-211): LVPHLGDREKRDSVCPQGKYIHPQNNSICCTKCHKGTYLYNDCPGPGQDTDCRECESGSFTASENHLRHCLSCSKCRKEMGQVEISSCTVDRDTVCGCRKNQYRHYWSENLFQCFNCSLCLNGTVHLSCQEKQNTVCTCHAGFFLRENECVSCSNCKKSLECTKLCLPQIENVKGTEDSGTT
Summary of the method: (§1)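 Peptides are tested against captured biotin-tagged human TNFR1 ECD, with parallel TNFR2 ECD binding to check selectivity. Buffer: 10 mM HEPES pH 7.4, 150 mM NaCl, 3 mM EDTA, 0.05% P20, 2% DMSO.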

[2] = molecular target: T2, human soluble TNFR1 (sTNFR1) (Homo sapiens, UniProt P19438); test: Human sTNFR1-peptide displacement assay (LanthaScreen Eu TR-FRET binding assay)
T2 construct: made in house; host or cells: Sf21 (baculovirus)
T2 sequence (P19438 with tags, fused parts or gaps): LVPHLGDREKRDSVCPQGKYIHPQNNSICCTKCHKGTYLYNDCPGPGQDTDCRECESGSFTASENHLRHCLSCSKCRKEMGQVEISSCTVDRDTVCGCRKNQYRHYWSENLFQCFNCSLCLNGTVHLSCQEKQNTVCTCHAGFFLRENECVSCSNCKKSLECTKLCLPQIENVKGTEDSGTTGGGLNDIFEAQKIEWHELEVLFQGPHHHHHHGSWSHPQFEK
Summary of the method: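 Readout is the 665/615 nm TR-FRET ratio (Eu anti-His donor, streptavidin-Alexa647 acceptor), normalized to DMSO and saturating displacer, fit by Morrison-based five-parameter logistic for Kd^app. His-tagged sTNFR1 (1-211) prebound to 100 nM biotinylated peptide SEQ ID NO.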

human TNFR2 ECD protein = molecular target: T3, human TNFR2 ECD protein (Homo sapiens, UniProt P20333); test: SPR off-target binding (selectivity) to human TNFR2 ECD
T3 construct: HRV 3C protease cleavage site (C); 6His (C, cleaved yes); made in house; host or cells: Sf21 insect cells (baculovirus), secreted
T3 sequence (P20333 23-257): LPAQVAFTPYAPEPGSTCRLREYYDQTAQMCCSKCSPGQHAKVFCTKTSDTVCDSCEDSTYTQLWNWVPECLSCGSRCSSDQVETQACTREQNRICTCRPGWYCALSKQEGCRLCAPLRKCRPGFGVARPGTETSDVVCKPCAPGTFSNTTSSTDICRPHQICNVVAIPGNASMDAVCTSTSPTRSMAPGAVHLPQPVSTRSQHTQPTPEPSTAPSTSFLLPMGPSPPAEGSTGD
Summary of the method: as §1

| SMILES | Kd [1] | Kd [2] | Kd (human TNFR2 ECD protein) | IC50 [2] |
| --- | --- | --- | --- | --- |
| COc1cccc2c([C@H](C)[C@@H]3NC(=O)CN(C)C(=O)[C@H](Cc4cccc(C(N)=O)c4)NC(=O)[C@H](Cc4ccc(C(N)=O)cc4)NC(=O)[C@](C)(CO)NC(=O)[C@H](Cc4c[nH]c5c(Cl)cccc45)NC(=O)[C@H](Cc4ccncc4)NC(=O)[C@H](CC(N)=O)NC(=O)[C@H]4C[C@H](O)CN4C(=O)[C@H](Cc4c[nH]c5ccccc45)NC(=O)[C@@H]4CC[C@@H](O)CN4C(=O)[C@H](Cc4ccncc4)NC(=O)[C@H](CCNC(=O)c4ccon4)NC(=O)[C@@H]4CC[C@@H](C4)NC3=O)c[nH]c12 [SEQ ID NO. 169] (cyclo([4Pal][Trp(7-Cl)][αMeS][Phe(4-CONH2)][Phe(3-CONH2)][Sar][Trp(βS-Me,7-OMe)][X1][Dab](Isoxazole(3-carbonyl))[4Pal][Pip(5R-OH)]W[dHyp]N)) | 0.08 nM | 0.16 nM | > 1000 nM | – |
| CCCC[C@@H]1NC(=O)CSC[C@@H](C(N)=O)NC(=O)[C@H]([C@@H](C)c2c[nH]c3c(OC)cccc23)NC(=O)CN(C)C(=O)[C@H](Cc2ccc(O)cc2)NC(=O)[C@H](Cc2ccc(C(=O)O)cc2)NC(=O)[C@](C)(CO)NC(=O)[C@H](Cc2c[nH]c3c(Cl)cccc23)NC(=O)[C@H](Cc2ccncc2)NC(=O)[C@H](CC(N)=O)NC(=O)[C@H](CCC(=O)O)N(C)C(=O)[C@H](Cc2c[nH]c3ncccc23)NC(=O)[C@@H]2CNCCN2C(=O)[C@H](CCc2ccccc2)NC1=O [SEQ ID NO. 172] ({CH2CO}-[Nle][hPhe][Pip(4-aza)][Trp(7-aza)][NMeE]N[4Pal][Trp(7-Cl)][αMeS][Phe(4-COOH)]Y[Sar][Trp(βS-Me,7-OMe)]C-NH2; thioether N-14) | 0.2 nM | 0.57 nM | > 1000 nM | 0.63 nM |
| CCCCC[C@@H]1NC(=O)[C@@H]2CC[C@@H](C2)NC(=O)[C@H]([C@@H](C)c2c[nH]c3c(OC)cccc23)NC(=O)CN(C)C(=O)[C@H](Cc2cccc(C(N)=O)c2)NC(=O)[C@H](Cc2ccc(C(N)=O)cc2)NC(=O)[C@](C)(CO)NC(=O)[C@H](Cc2c[nH]c3c(C#N)cccc23)NC(=O)[C@H](Cc2ccncc2)NC(=O)[C@H](CC(N)=O)NC(=O)[C@H]2C[C@H](O)CN2C(=O)[C@H](Cc2c[nH]c3ccccc23)NC(=O)[C@@H]2CNCCN2C(=O)[C@H](Cc2ccncc2)NC1=O [SEQ ID NO. 174] (cyclo([4Pal][Trp(7-CN)][αMeS][Phe(4-CONH2)][Phe(3-CONH2)][Sar][Trp(βS-Me,7-OMe)][X1][Ahp(2)][4Pal][Pip(4-aza)]W[dHyp]N)) | 0.01 nM | 0.06 nM | > 1000 nM | – |
| CCCC[C@@H]1NC(=O)CSC[C@@H](C(N)=O)NC(=O)[C@H]([C@@H](C)c2c[nH]c3c(OC)cccc23)NC(=O)CN(C)C(=O)[C@H](Cc2ccc(O)cc2)NC(=O)[C@H](Cc2ccc(C(=O)O)cc2)NC(=O)[C@](C)(CO)NC(=O)[C@H](Cc2c[nH]c3c(Cl)cccc23)NC(=O)[C@H](Cc2ccc(OCC(=O)O)cc2)NC(=O)[C@H](CC(N)=O)NC(=O)[C@H](CCC(=O)O)N(C)C(=O)[C@H](Cc2c[nH]c3ccccc23)NC(=O)[C@@H]2COC(C)(C)CN2C(=O)[C@H](Cc2ccncc2)NC1=O [SEQ ID NO. 179] ({CH2CO}-[Nle][4Pal][Morpholine(3S-CO,6,6-Me2)]W[NMeE]NY(Carboxymethyl)[Trp(7-Cl)][αMeS][Phe(4-COOH)]Y[Sar][Trp(βS-Me,7-OMe)]C-NH2; thioether N-14) | 0.14 nM | 0.29 nM | > 1000 nM | 0.5 nM |
| CCCC[C@@H]1NC(=O)CSC[C@@H](C(N)=O)NC(=O)[C@H]([C@@H](C)c2c[nH]c3c(OC)cccc23)NC(=O)CN(C)C(=O)[C@H](Cc2ccc(O)cc2)NC(=O)[C@H](Cc2ccc(C(=O)O)cc2)NC(=O)[C@](C)(CO)NC(=O)[C@H](Cc2c[nH]c3c(Cl)cccc23)NC(=O)[C@H](Cc2ccncc2)NC(=O)[C@H](CC(N)=O)NC(=O)[C@H](CCC(=O)O)N(C)C(=O)[C@H](Cc2c[nH]c3ncccc23)NC(=O)[C@H](CO)NC(=O)[C@H]([C@@H](C)c2ccncc2)NC1=O [SEQ ID NO. 180] ({CH2CO}-[Nle][4Pal(3S-Me)]S[Trp(7-aza)][NMeE]N[4Pal][Trp(7-Cl)][αMeS][Phe(4-COOH)]Y[Sar][Trp(βS-Me,7-OMe)]C-NH2; thioether N-14) | 0.05 nM | 0.18 nM | > 1000 nM | 0.3 nM |
| CCCC[C@@H]1NC(=O)[C@@H]2CC[C@@H](C2)NC(=O)[C@H]([C@@H](C)c2c[nH]c3c(OC)cccc23)NC(=O)CN(C)C(=O)[C@H](Cc2ccc(C(=O)O)cc2)NC(=O)[C@H](Cc2ccc(C(N)=O)cc2)NC(=O)[C@](C)(CO)NC(=O)[C@H](Cc2c[nH]c3c(Cl)cccc23)NC(=O)[C@H](Cc2ccncc2)NC(=O)[C@H]([C@H](C)O)NC(=O)[C@H]2C[C@H](O)CN2C(=O)[C@H](Cc2c[nH]c3ccccc23)NC(=O)[C@@H]2CC[C@@H](O)CN2C(=O)[C@H](Cc2ccncc2)NC1=O [SEQ ID NO. 187] (cyclo([4Pal][Trp(7-Cl)][αMeS][Phe(4-CONH2)][Phe(4-COOH)][Sar][Trp(βS-Me,7-OMe)][X1][Nle][4Pal][Pip(5R-OH)]W[dHyp][aThr])) | 0.04 nM | 0.09 nM | > 1000 nM | – |
| CCCC[C@@H]1NC(=O)[C@@H]2CC[C@@H](C2)NC(=O)[C@H]([C@@H](C)c2c[nH]c3c(OC)cccc23)NC(=O)CN(C)C(=O)[C@H]([C@H](O)c2ccc(C(=O)O)cc2)NC(=O)[C@H](Cc2ccc(C(N)=O)cc2)NC(=O)[C@](C)(CO)NC(=O)[C@H](Cc2c[nH]c3c(Cl)cccc23)NC(=O)[C@H](Cc2ccncc2)NC(=O)[C@H](CC(N)=O)NC(=O)[C@H]2C[C@H](O)CN2C(=O)[C@H](Cc2c[nH]c3ccccc23)NC(=O)[C@@H]2CC[C@@H](O)CN2C(=O)[C@H](Cc2ccncc2)NC1=O [SEQ ID NO. 188] (cyclo([4Pal][Trp(7-Cl)][αMeS][Phe(4-CONH2)][X24][Sar][Trp(βS-Me,7-OMe)][X1][Nle][4Pal][Pip(5R-OH)]W[dHyp]N)) | 0.03 nM | 0.1 nM | > 1000 nM | – |
| CCCC[C@@H]1NC(=O)[C@@H]2CC[C@@H](C2)NC(=O)[C@H]([C@@H](C)c2c[nH]c3c(OC)cccc23)NC(=O)CN(C)C(=O)[C@H](Cc2ccc(C(N)=O)cc2)NC(=O)[C@H](Cc2ccc(C(N)=O)cc2)NC(=O)[C@](C)(CO)NC(=O)[C@H](Cc2c[nH]c3c(Cl)cccc23)NC(=O)[C@H](Cc2ccncc2)NC(=O)[C@H](CC(N)=O)NC(=O)[C@H](CCC(=O)O)N(C)C(=O)[C@H](Cc2c[nH]c3ncccc23)NC(=O)[C@@H]2CC[C@@H](O)CN2C(=O)[C@H](Cc2ccncc2)NC1=O [SEQ ID NO. 189] (cyclo([4Pal][Trp(7-Cl)][αMeS][Phe(4-CONH2)][Phe(4-CONH2)][Sar][Trp(βS-Me,7-OMe)][X1][Nle][4Pal][Pip(5R-OH)][Trp(7-aza)][NMeE]N)) | 0.1 nM | 0.01 nM | > 1000 nM | – |
| CCCCC[C@@H]1NC(=O)[C@@H]2CC[C@@H](C2)NC(=O)[C@H]([C@@H](C)c2c[nH]c3c(OC)cccc23)NC(=O)CN(C)C(=O)[C@H](Cc2ccc(OC)cc2)NC(=O)[C@H](Cc2ccc(C(N)=O)cc2)NC(=O)[C@](C)(CO)NC(=O)[C@H](Cc2c[nH]c3c(C#N)cccc23)NC(=O)[C@H](Cc2ccncc2)NC(=O)[C@H](CC(N)=O)NC(=O)[C@H]2C[C@H](O)CN2C(=O)[C@H](Cc2c[nH]c3ccccc23)NC(=O)[C@@H]2CNCCN2C(=O)[C@H](Cc2ccncc2)NC1=O [SEQ ID NO. 200] (cyclo([4Pal][Trp(7-CN)][αMeS][Phe(4-CONH2)]Y(Me)[Sar][Trp(βS-Me,7-OMe)][X1][Ahp(2)][4Pal][Pip(4-aza)]W[dHyp]N)) | 0.02 nM | 0.09 nM | > 1000 nM | – |

From patent publication US20240287138A1, “CYCLIC PEPTIDES FOR INHIBITING TNF RECEPTOR 1 ACTIVITY” (Merck Sharp & Dohme LLC, priority 2023, published 2024)
